In patent publication US20030180295A1, “Angiocidin: a Cys-Ser-Val-Thr-Cys-Gly specific tumor cell adhesion receptor” (Philadelphia Health and Education Corporation, priority 1999, published 2003):
Entries after “also recorded” stand apart in the source; their conditions may differ.

Assays:
[1] = target: T1, biotin-angiocidin complex binding to TSP-1 (Homo sapiens, UniProt P55036, INS254GER); test: Biotin-avidin receptor binding assay: competition; details: Example 23, FIGS. 29 and 30
T1 sequence (P55036 with tags, fused parts or gaps INS254GER): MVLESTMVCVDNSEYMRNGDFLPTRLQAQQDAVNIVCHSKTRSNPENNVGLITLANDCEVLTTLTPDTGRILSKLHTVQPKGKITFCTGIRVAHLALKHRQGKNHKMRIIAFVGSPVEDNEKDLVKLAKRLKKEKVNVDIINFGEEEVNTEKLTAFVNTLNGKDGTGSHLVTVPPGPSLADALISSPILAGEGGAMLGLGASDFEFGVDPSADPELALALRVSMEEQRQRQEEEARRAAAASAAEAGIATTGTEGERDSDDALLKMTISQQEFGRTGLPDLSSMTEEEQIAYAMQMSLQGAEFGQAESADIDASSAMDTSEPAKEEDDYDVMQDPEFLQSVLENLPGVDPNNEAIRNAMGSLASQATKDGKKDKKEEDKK
Method: In the following experiments, TSP-1 was covalently bound to a substrate, biotinylated angiocidin was added to the plate, and avidin-peroxidase was added to measure how much biotinylated angiocidin was attached to the TSP-1. The avidin-peroxidase was measured using a spectrophotometer at an absorbance of 450 nm.
Free angiocidin was added to the system to compete with the biotinylated angiocid in. […] Immobilized BSA was used as a negative control.
The TSP-1 peptide Cys-Ser-Val-Thr-Cys-Gly (SEQ ID NO: 1) was added to the system to compete with the TSP-1 on the plate for binding with the biotinylated angiocidin. The scrambled peptide Val-Cys-Thr-Gly-Ser-Cys (SEQ ID NO: 15) was used as a negative control and had no effect.
The avidin-biotin system discussed above was used to evaluate the competitive effect of various peptides on the binding of TSP-1 and angiocidin. […] The scrambled peptide Val-Cys-Thr-Gly-Ser-Cys-Gly (SEQ ID NO: 21) and the d-orientation peptide d-Cys-Ser-Val-Thr-Cys-Gly (SEQ ID NO: 22) were used as negative controls.

[2] = test system: Bovine aortic endothelial cells (BAEC); test: Morphology of BAEC monolayer cultures; format: cell-based; details: 0.37, 3.7, 37 μg/ml, 24 hours, serum-free medium with 1% BSA
Method: In this experiment, BAEC cells in monolayer cultures were plated for 24 hours in serum-free medium containing 1% BSA in the presence of increasing concentrations of angiocidin (control=none, 0.37 μg/ml, 3.7 μg/ml, 37 μg/ml). Hoffman interference microscopy (100×) was used to photograph the cells.

[3] = test system: Bovine aortic endothelial cells (BAEC); test: ALAMAR BLUE cell viability assay; format: cell-based
Method: (§1) Bovine aortic endothelial cells (BAEC), human umbilical vein endothelial cells (HUVEC), fibroblast cells, A549 human lung carcinoma cells (A549), MDA-MB231 human breast carcinoma cells (MB231), MCF7 human breast carcinoma cells (MCF7) were treated with 37 μg/ml of receptor, or buffer alone, for 24 hours. Viability of the cells was measured using the ALAMAR BLUE™ assay, which measures the capacity of cells to metabolize the ALAMAR BLUE™ dye. The ALAMAR BLUE™ assay (available from Biosource International, Camarillo, Calif.) quantitatively measures the proliferation of cell lines and can establish the relative cytotoxicity of chemical agents. The assay incorporates a fluorometric/colorimetric growth indicator based on detection of metabolic activity. The system incorporates an oxidation-reduction (redox) indicator that both fluoresces and changes color in response to chemical reduction of growth medium resulting from cell growth. This causes the redox indicator to change from its oxidized, non-fluorescent, blue form to its reduced, fluorescent, red form. Data can be collected using either fluorescence-based instrumentation (530-560 nm excitation wavelength and 590 nm emission wavelength) or absorbance-based instrumentation (570 nm and 600 nm).
BAEC and BSM cells were treated with increasing concentrations of angiocidin (0, 0.625, 1.25, 2.5, 5, 15, 26 and 37 μg/ml) for 24 hours. Cell viability was measured using the ALAMAR BLUE Tm assay. […] In contrast, BSM cells are unaffected.
The methods of Example 21 were followed, except BAEC cells were used. Additionally, TSP-1 was added at both 20 μg/ml and 5 μg/ml.
As discussed in Example 19 above, angiocidin was added to BAEC cells. Fragments of angiocidin were added as well. […] GST was used as a negative control. V36-R42, the active site of the antisecretory factor, had no effect, illustrating that angiocidin plays a different role from antisecretory factor.
Bovine aortic endothelial cells (BAEC) were cultured overnight in serum-free media containing either 37 μg/ml his-tagged angiocidin or his-tagged GST. Both angiocidin and GST were expressed in bacteria transformed with the pTrcHisA expression vector and purified on nickel affinity chromatography under non-denaturing conditions. Viability was measured by the ALAMAR BLUE™ assay.
This study examined the effect of anti-angiocidin antibody on angiocidin-mediated inhibition of BAEC viability. BAEC were cultured overnight in serum-free media containing either 5 μg/ml angiocidin, 5 μg/ml angiocidin plus 100 μg/ml control IgG, or 5 μg/ml angiocidin plus 100 μg/ml anti-angiocidin IgG. Viability was measured using the ALAMAR BLUE™ assay, described above.
The endothelial cells (BAEC) were incubated overnight 37 μg/ml of the angiocidin, fragments, and GST. Viability was measured using the ALAMAR BLUE™ assay.

[4] = test system: mouse Lewis lung carcinoma cells; test: ALAMAR BLUE cell viability assay; format: cell-based; details: 0 to 37 μg/ml, 24 hours
Method: as §1, with “This causes the redox indicator to change from its oxidized, non-fluorescent, blue form to its reduced, fluorescent, red form.” left out
BAEC and BSM cells were treated with increasing concentrations of angiocidin (0, 0.625, 1.25, 2.5, 5, 15, 26 and 37 μg/ml) for 24 hours. Cell viability was measured using the ALAMAR BLUE Tm assay. […]

Lewis lung carcinoma = test: Growth of Lewis lung carcinoma flank tumors; format: in vivo, mice; details: 50 μg IV on days 1, 3, 5
From the text: Ten animals were subcutaneously injected in the flank with […] Lewis lung carcinoma cells. Evaluation of flank tumors is a well recognized model for angiogenesis, because flank tumors are highly dependent on angiogenesis. O'Reilly, M. S., Angiostatin: A Novel Angiogenesis Inhibitor that Mediates the Suppression of Metastasis by a Lewis Lung Carcinoma, Cell 79: 315-28 (1994). After 9 days when a palpable tumor developed, mice were divided into two groups of 5 animals per group. One group of 5 mice were treated with an IV injection of 50 μg of angiocidin in Hepes buffered saline. The control group was treated with Hepes buffered saline. Mice were treated on days 1, 3, and 5 after the groups were divided, and sacrificed on day 7.
The tumors were embedded in paraffin and cut into 5 micron sections. The sections were stained with hemotoxylin and eosin. Hemotoxylin stains DNA blue, and eosin stains protein pink. FIG. 36 illustrates the difference between control (panels A and C) and angiocidin (panels B and D) treated cells. Panels A and B are at a magnification of 400×under a light microscope and panels C and D are at a magnification of 200×under a light microscope.

angiocidin: Cys-Ser-Val-Thr-Cys-Gly (SEQ ID NO: 1)-specific thrombospondin (TSP-1) receptor protein; recombinant form of SEQ ID NO: 2 used in the Examples
competition of biotin-angiocidin binding to TSP-1 [1]: the binding decreased linearly
cell morphology [2]: elongated, detached from the plate, aggregated, and died
cell viability ([3]; 0 to 37 μg/ml, 24 hours): dose dependent inhibition of BAEC cell viability; also recorded: decreases viability of BAEC cells
decrease of cell viability ([3]; 37 μg/ml, 24 hours): 70-80%
cell viability, angiocidin and fragments ([3]; Example 27, FIG. 34): inhibited cell viability
cell viability, his-tagged proteins ([3]; overnight, serum-free media, purified under non-denaturing conditions): dose-dependent effect on cell viability
cell viability [4]: does not affect the Lewis lung cells
tumor histology (hemotoxylin and eosin) (Lewis lung carcinoma): significant necrosis and cell death
tumor growth (relative tumor volumes) (Lewis lung carcinoma; 7 day treatment period): grew only slightly and at a linear rate
flank tumor size (Lewis lung carcinoma; sacrificed day 7): much smaller than the control mice
